Assay results published in US8748624B2, “Picolinamido-propanoic acid derivatives useful as glucagon receptor antagonists” (Janssen Pharmaceutica NV, priority 2011, dated 2014).

Assays:
[1] = target: human glucagon receptor (GCGR) (Homo sapiens (Human), UniProt P47871); experiment: Inhibition of 125I-glucagon binding to membranes from HEK293 cells expressing the human glucagon receptor; conditions: membranes of hGluc-1 HEK cells, 125I-glucagon 0.3 nM
Description: Inhibition ^125I-Glucagon Binding to Membranes from HEK293 Cells Expressing the Human Glucagon Receptor (GCGR)
Full-length human GCGR (Accession Number: NM000160) subcloned into pcDNA3.1 was stably transfected into HEK293 cells (hGluc-1 HEK) and maintained under G418 selection (500 μg/mL). Cell cultures were maintained in DMEM/F12 media supplemented with 10% FBS and 1% GlutaMax. Membranes were prepared from these cells as follows: cells were harvested from T225 flasks and re-suspended in hypotonic lysis buffer, 50 mM HEPES pH 7.4 supplemented with Complete Protease inhibitors (Boehringer Mannheim, Indianapolis, Ind.). Cells were dounced 20 times on ice and spun at 700×g to remove nuclei and unlysed cells. The resulting pellet was re-suspended in hypotonic lysis buffer and the above step was repeated. Supernatants from the low speed centrifugation were combined and subsequently spun at 100K×g for 1 hr at 4° C. and the resulting pellet was re-suspended in buffer containing 50 mM HEPES pH 7.4 and 10% sucrose and the protein concentration was adjusted at 1 mg/mL as determined in the BCA assay. Membranes were aliquoted and stored at −80° C. The binding assay was performed by a filtration method in a 384 well format. Membranes at a final protein concentration of 6 μg/well were incubated with ^125I-glucagon at 0.3 nM and in the presence of compound for 2 hours at room temperature in a total reaction volume of 40 μL per well. Assay buffer consisted of 50 mM HEPES, pH 7.4, 5 mM MgCl2, 1 mM CaCl2 and 0.2% BSA. 30 μL of the reaction was then transferred to PEI treated filter plates and followed by filter aspiration. Plates were then washed 5× and allowed to dry at room temperature overnight. The next day the bottom of the plate was covered with seal tape and scintillant was added. Total counts retained by the filters were quantified with a Top Count instrument. IC50's were generated by using a non-linear regression macro driven in Excel and converted to K's.

human GCGR = human GCGR (Homo sapiens (Human), UniProt P47871); experiment: Cellular functional assay, cAMP readout (glucagon-stimulated cAMP in HEK293 cells expressing human GCGR); type: cell-based; conditions: hGluc-1 HEK cells
Chain of human GCGR (P47871 26-477): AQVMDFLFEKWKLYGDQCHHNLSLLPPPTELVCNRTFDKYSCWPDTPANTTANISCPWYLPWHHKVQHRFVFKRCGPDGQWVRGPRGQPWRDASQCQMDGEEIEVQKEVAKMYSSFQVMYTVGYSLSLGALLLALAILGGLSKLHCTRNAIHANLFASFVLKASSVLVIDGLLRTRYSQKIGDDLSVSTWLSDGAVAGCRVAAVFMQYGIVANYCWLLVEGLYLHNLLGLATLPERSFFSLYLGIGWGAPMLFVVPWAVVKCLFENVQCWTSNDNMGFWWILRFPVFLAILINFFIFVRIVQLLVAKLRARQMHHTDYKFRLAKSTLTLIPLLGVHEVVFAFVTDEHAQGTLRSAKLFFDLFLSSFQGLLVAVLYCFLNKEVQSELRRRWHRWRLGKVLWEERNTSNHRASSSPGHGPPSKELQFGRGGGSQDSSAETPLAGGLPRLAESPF
In short: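 HEK293 cells stably transfected with full-length human GCGR were exposed to compound for 30 min before a 5-min challenge with […] (final) glucagon. Readout was TR-FRET (LANCE) cAMP versus standard curve; IC50s fitted by non-linear regression and converted to Ki values.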

[2] = 2 hours room temperature, IC50 converted to Ki, average if tested more than once
[3] = LANCE TR-FRET, IC50 converted to Ki, average if tested more than once
[4] = meta-substituted comparative compounds (Table 3)

Chain of human glucagon receptor (GCGR) (P47871 26-477): as above

Row | SMILES | Ki [1, 2] | Ki (human GCGR; [3]) | Ki [1, 4] | Ki (human GCGR; [4])
1 | O=C(O)CCNC(=O)c1ccc(-c2cc(Cl)ccc2CNc2ccc(-c3ccccc3OC(F)(F)F)cc2)cn1 [Compound 132, 3-(5-(5-chloro-2-(((2′-(trifluoromethoxy)-[1,1′-biphenyl]-4-yl)amino)methyl)phenyl)picolinamido)propanoic acid] | 123 nM | 1930 nM | – | –
2 | O=C(O)CCNC(=O)c1ccc(-c2cc(F)ccc2CNc2ccc(-c3ccc(Cl)cc3Cl)c(F)c2)cn1 [Compound 57, 3-(5-(2-(((2′,4′-dichloro-2-fluoro-[1,1′-biphenyl]-4-yl)amino)methyl)-5-fluorophenyl)picolinamido)propanoic acid] | 74.2 nM | 205 nM | – | –
3 | O=C(O)CCNC(=O)c1ccc(-c2cc(Cl)cc(CNc3ccc(-c4ccc(F)cc4)cc3)c2)cn1 [Compound M1, 3-(5-(3-chloro-5-(((4′-fluoro-[1,1′-biphenyl]-4-yl)amino)methyl)phenyl)picolinamido)propanoic acid, reference compound] | – | – | > 2700 nM | > 10400 nM
4 | O=C(O)CCNC(=O)c1ccc(-c2cc(Cl)ccc2CNc2ccc(-c3ccc(Cl)c(C(F)(F)F)c3)c(Cl)c2)cn1 [Compound 169, 3-(5-(5-chloro-2-(((2,4′-dichloro-3′-(trifluoromethyl)-[1,1′-biphenyl]-4-yl)amino)methyl)phenyl)picolinamido)propanoic acid] | 39 nM | 142 nM | – | –
5 | O=C(O)CCNC(=O)c1ccc(-c2cc(Cl)ccc2CNc2ccc(-c3cccc(C(F)(F)F)c3)c(Cl)c2)cn1 [Compound 170, 3-(5-(5-chloro-2-(((2-chloro-3′-(trifluoromethyl)-[1,1′-biphenyl]-4-yl)amino)methyl)phenyl)picolinamido)propanoic acid] | 20.7 nM | 66.8 nM | – | –
6 | O=C(O)CCNC(=O)c1ccc(-c2cc(Cl)ccc2CNc2ccc(-c3ccc(F)c(C(F)(F)F)c3)c(Cl)c2)cn1 [Compound 144, 3-(5-(5-chloro-2-(((2-chloro-4′-fluoro-3′-(trifluoromethyl)-[1,1′-biphenyl]-4-yl)amino)methyl)phenyl)picolinamido)propanoic acid] | 12.4 nM | 23 nM | – | –
7 | N#Cc1cc(NCc2cc(F)c(F)cc2-c2ccc(C(=O)NCCC(=O)O)nc2)ccc1-c1ccc(F)c(C(F)(F)F)c1 [Compound 109, 3-(5-(2-(((2-cyano-4′-fluoro-3′-(trifluoromethyl)-[1,1′-biphenyl]-4-yl)amino)methyl)-4,5-difluorophenyl)picolinamido)propanoic acid] | 30.4 nM | 115 nM | – | –
8 | O=C(O)CCNC(=O)c1ccc(-c2cc(Cl)ccc2CNc2ccc(-c3ccc(OC(F)(F)F)cc3)c(Cl)c2)cn1 [Compound 140, 3-(5-(5-chloro-2-(((2-chloro-4′-(trifluoromethoxy)-[1,1′-biphenyl]-4-yl)amino)methyl)phenyl)picolinamido)propanoic acid] | 21.5 nM | 84.3 nM | – | –
9 | Cc1cc(Cl)ccc1-c1ccc(NCc2c(Cl)cc(C(F)(F)F)cc2-c2ccc(C(=O)NCCC(=O)O)nc2)cc1 [Compound 73, 3-(5-(3-chloro-2-(((4′-chloro-2′-methyl-[1,1′-biphenyl]-4-yl)amino)methyl)-5-(trifluoromethyl)phenyl)picolinamido)propanoic acid] | 19.5 nM | 3.7 nM | – | –
10 | O=C(O)CCNC(=O)c1ccc(-c2cc(F)c(F)cc2CNc2ccc(-c3ccc(Cl)cc3Cl)cc2)cn1 [Compound 118, 3-(5-(2-(((2′,4′-dichloro-[1,1′-biphenyl]-4-yl)amino)methyl)-4,5-difluorophenyl)picolinamido)propanoic acid] | 67.8 nM | 120 nM | – | –
11 | Cc1cc(-c2ccc(NCc3ccc(Cl)cc3-c3ccc(C(=O)NCCC(=O)O)nc3)cc2)ccc1F [Compound 146, 3-(5-(5-chloro-2-(((4′-fluoro-3′-methyl-[1,1′-biphenyl]-4-yl)amino)methyl)phenyl)picolinamido)propanoic acid] | 28.1 nM | 268 nM | – | –
12 | CS(=O)(=O)c1ccc(CNc2ccc(-c3ccc(Cl)cc3)cc2)c(-c2ccc(C(=O)NCCC(=O)O)nc2)c1 [Compound 70, 3-(5-(2-(((4′-chloro-[1,1′-biphenyl]-4-yl)amino)methyl)-5-(methylsulfonyl)phenyl)picolinamido)propanoic acid] | 52.2 nM | > 10400 nM | – | –
13 | Cc1cccc(CNc2ccc(-c3ccc(Cl)cc3)cc2)c1-c1ccc(C(=O)NCCC(=O)O)nc1 [Compound 69, 3-(5-(2-(((4′-chloro-[1,1′-biphenyl]-4-yl)amino)methyl)-6-methylphenyl)picolinamido)propanoic acid] | 85.2 nM | 500 nM | – | –
14 | Cc1ccc(-c2ccc(NCc3cc(F)c(F)cc3-c3ccc(C(=O)NCCC(=O)O)nc3)cc2C#N)c(F)c1 [Compound 112, 3-(5-(2-(((2-cyano-2′-fluoro-4′-methyl-[1,1′-biphenyl]-4-yl)amino)methyl)-4,5-difluorophenyl)picolinamido)propanoic acid] | 76.5 nM | 280 nM | – | –

More lines, in order of falling Ki [1, 2], values ahead:

Row | Ki [1, 2] | Ki (human GCGR; [3]) | Ki [1, 4] | Ki (human GCGR; [4]) | SMILES
15 | 156 nM | 650 nM | – | – | O=C(O)CCNC(=O)c1ccc(-c2cc(Cl)ccc2CNc2ccc(-c3ccc(Cl)c(Cl)c3)c(C(F)(F)F)c2)cn1 [Compound 55, 3-(5-(5-chloro-2-(((3′,4′-dichloro-2-(trifluoromethyl)-[1,1′-biphenyl]-4-yl)amino)methyl)phenyl)picolinamido)propanoic acid]
16 | 67.1 nM | 181 nM | – | – | O=C(O)CCNC(=O)c1ccc(-c2ccc(Cl)cc2CNc2ccc(-c3ccc(Cl)cc3Cl)cc2)cn1 [Compound 5, 3-(5-(4-chloro-2-(((2′,4′-dichloro-[1,1′-biphenyl]-4-yl)amino)methyl)phenyl)picolinamido)propanoic acid]
17 | 63.9 nM | 3000 nM | – | – | O=C(O)CCNC(=O)c1ccc(-c2cc(Cl)ccc2CNc2ccc(-c3ccccc3Cl)cc2)cn1 [Compound 135, 3-(5-(5-chloro-2-(((2′-chloro-[1,1′-biphenyl]-4-yl)amino)methyl)phenyl)picolinamido)propanoic acid]
18 | 43.5 nM | 160 nM | – | – | O=C(O)CCNC(=O)c1ccc(-c2cc(F)c(F)cc2CNc2ccc(-c3ccc(Cl)cc3)cc2)cn1 [Compound 117, 3-(5-(2-(((4′-chloro-[1,1′-biphenyl]-4-yl)amino)methyl)-4,5-difluorophenyl)picolinamido)propanoic acid]
19 | 31.3 nM | 225 nM | – | – | O=C(O)CCNC(=O)c1ccc(-c2cc(Cl)ccc2CNc2ccc(-c3ccc(F)cc3C(F)(F)F)c(Cl)c2)cn1 [Compound 142, 3-(5-(5-chloro-2-(((2-chloro-4′-fluoro-2′-(trifluoromethyl)-[1,1′-biphenyl]-4-yl)amino)methyl)phenyl)picolinamido)propanoic acid]
20 | 30.9 nM | 138 nM | – | – | O=C(O)CCNC(=O)c1ccc(-c2cc(Cl)ccc2CNc2ccc(-c3c(F)cccc3Cl)cc2)cn1 [Compound 141, 3-(5-(5-chloro-2-(((2′-chloro-6′-fluoro-[1,1′-biphenyl]-4-yl)amino)methyl)phenyl)picolinamido)propanoic acid]
21 | 22.1 nM | 19.4 nM | – | – | O=C(O)CCNC(=O)c1ccc(-c2cc(C(F)(F)F)ccc2CNc2ccc(-c3ccc(F)c(C(F)(F)F)c3)c(Cl)c2)cn1 [Compound 31, 3-(5-(2-(((2-chloro-4′-fluoro-3′-(trifluoromethyl)-[1,1′-biphenyl]-4-yl)amino)methyl)-5-(trifluoromethyl)phenyl)picolinamido)propanoic acid]
22 | 21.3 nM | 41.8 nM | – | – | O=C(O)CCNC(=O)c1ccc(-c2cc(F)c(F)cc2CNc2ccc(-c3ccc(F)c(C(F)(F)F)c3)c(Cl)c2)cn1 [Compound 102, 3-(5-(2-(((2-chloro-4′-fluoro-3′-(trifluoromethyl)-[1,1′-biphenyl]-4-yl)amino)methyl)-4,5-difluorophenyl)picolinamido)propanoic acid]
23 | 14.4 nM | 35 nM | – | – | O=C(O)CCNC(=O)c1ccc(-c2cc(C(F)(F)F)ccc2CNc2ccc(-c3ccc(F)c(Cl)c3)c(Cl)c2)cn1 [Compound 35, 3-(5-(2-(((2,3′-dichloro-4′-fluoro-[1,1′-biphenyl]-4-yl)amino)methyl)-5-(trifluoromethyl)phenyl)picolinamido)propanoic acid]
